Results as given in US9850383B2, “Uncharged pyrenyloxy sulfonamide dyes for conjugation with biomolecules” (Gene Tools, LLC, priority 2016, dated 2017).

Assays:
[1] = Excitation and emission spectrum (fluorescence); assay type: physicochemical
Excerpt: FIG. 1. Excitation and emission spectrum of pyrenyloxy sulfonamide (Compound 4a)
FIG. 2. Excitation and emission spectrum of Cascade Blue
FIG. 3. Excitation and emission spectrum of fluorescein
(§1) The core structure of the improved, reactive, hydrophilic, uncharged fluorophores is a new class of pyrenyloxy sulfonamide compounds. […] The novelty of this invention involves the substantial improvement of the properties of Cascade Blue, a currently available blue-fluorescent dye. The high polarity of anionic sulfonate of Cascade Blue results in the membrane-impermeability which can only be used extracellularly, a major disadvantage for many desirable applications. […] And the high aqueous solubility of the pyrenyloxy sulfonamide is useful for biological and physiological application, allowing staining the cell surface which is negatively charged, and even more useful to enter the cell for intracellular detection. In addition, the Stokes shift of Cascade Blue is undesirably small (ca. 20 nm, FIG. 2). […] The Stokes shift of the compounds of this invention is a much more practical 44 nm (FIG. 1), a significant improvement in its utility as a tracer for biological applications. The molar extinction coefficient of the structure of the invention is slightly higher (3.1×10^4 cm^−1 M^−1 at λ423 nm) than that of Cascade Blue (2.9×10^4 cm^−1 M^−1 at λ410 nm), an additional advantage for increased sensitivity. Photostability of the dye (compound 6 in FIG. 6) was tested under the light exposure. The scans were overlaid up to 60 mins with 15 min interval. […] This resistance to photobleaching greatly enhances the utility of the dye for quantitative measurements and permits extended illumination time.
Obvious is the spectra region shorter than 500 nm which is particularly valuable to get away from interference where green fluorescent protein is present or, to carry out the applications requiring multiple dyes such as flow cytometry, DNA sequencing and multiparameter microscopy. […] This special feature increases the sensitivity of the fluorescence techniques where the emission signal can be maximized against the low background.

[2] = Molar extinction coefficient; assay type: physicochemical; settings: at λ410 nm
Excerpt: as §1, with “sensitivity.” for “sensitivity. Photostability of the dye (compound 6 in FIG. 6) was tested under the light exposure. The scans were overlaid up to 60 mins with 15 min interval.”

| Compound | Stokes shift [1] | peak of emission [1] | peak of excitation [1] | molar extinction coefficient [2] |
| --- | --- | --- | --- | --- |
| O=S(=O)(c1cc(OCCCO)c2ccc3c(S(=O)(=O)N4CCOCC4)cc(S(=O)(=O)N4CCOCC4)c4ccc1c2c34)N1CCOCC1 [Compound 4a, 8-(3′-hydroxypropyloxy)pyren-tris(morpholino)-1,3,6-trisulfonamide] | ca. 44 nm | 465 nm | 421 nm | – |
| Cascade Blue [reference compound] | ca. 20 nm | – | – | 29000 cm⁻¹ M⁻¹ |
